Experimental data: ChEMBL document CHEMBL3272192, “Thyroxine analogues. 23. Quantitative structure-activity correlation studies of in vivo and in vitro thyromimetic activities” (1977)

What was measured:
Rattus norvegicus [1] = experiment: In vivo antigoiter activity in rat; type: functional
Rattus norvegicus [2] = species: Rattus norvegicus; experiment: Displacement of radiolabelled L-T3 from thyroid hormone receptor in intact rat hepatic nuclei relative to T3
[3] = target: T1, Thyroxine-binding globulin (Homo sapiens) (UniProt P05543); experiment: Binding affinity to thyroxine binding globulin (unknown origin) relative to T4
T1 sequence (whole entry): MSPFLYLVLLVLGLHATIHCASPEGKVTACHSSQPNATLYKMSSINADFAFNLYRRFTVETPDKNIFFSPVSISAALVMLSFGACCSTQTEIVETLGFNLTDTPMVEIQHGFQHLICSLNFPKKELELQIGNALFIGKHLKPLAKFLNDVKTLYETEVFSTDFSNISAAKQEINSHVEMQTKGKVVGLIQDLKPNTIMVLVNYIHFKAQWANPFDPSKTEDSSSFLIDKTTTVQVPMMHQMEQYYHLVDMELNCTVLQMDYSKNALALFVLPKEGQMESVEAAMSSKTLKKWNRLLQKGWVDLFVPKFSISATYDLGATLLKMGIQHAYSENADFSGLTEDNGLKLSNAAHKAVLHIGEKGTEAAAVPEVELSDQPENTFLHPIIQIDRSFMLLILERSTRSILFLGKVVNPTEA

| Structure (SMILES) | Activity (Rattus norvegicus [1]) [%] | log(%) (Rattus norvegicus [1]) | RBA (Rattus norvegicus [2]) [%] | log(%) (Rattus norvegicus [2]) | RBA [3] [%] | log(%) [3] |
| --- | --- | --- | --- | --- | --- | --- |
| CC(C)Cc1cc(Oc2c(I)cc(CC(N)C(=O)O)cc2I)ccc1O (centres undefined) | 7.74 | 0.889 | 20 | 1.3 | 0.1 | -1 |
| Cc1cc(Oc2c(I)cc(CC(N)C(=O)O)cc2I)cc(C)c1O (centres undefined) | 9.04 | 0.956 | 6.2 | 0.792 | 0.29 | -0.538 |
| CC(C)(C)c1cc(Oc2c(I)cc(CC(N)C(=O)O)cc2I)ccc1O (centres undefined) | 21.7 | 1.336 | 38.5 | 1.59 | 0.67 | -0.174 |
| CCc1cc(Oc2c(I)cc(CC(N)C(=O)O)cc2I)ccc1O (centres undefined) | 40.8 | 1.611 | 21 | 1.32 | 1.59 | 0.201 |
